Source: US20130143869A1, “USE OF A CATIONIC AMPHIPHILIC DRUG FOR THE PREPARATION OF A FORMULATION FOR THE REDUCTION OF SUBCUTANEOUS ADIPOSE TISSUE” (Merz Pharma GmbH & CO. KGaA, priority 2010, published 2013)
Counter-ions that a name gives are not always drawn. Like-named read-outs stand apart in the source and are kept apart here.

Columns and labels:
human adipocyte cells [1] = assay: Membrane integrity: LDH release from human adipocytes (LDH assay); format: cell-based; conditions: Example 1, 48 hrs, relative to Triton-x 100 maximal LDH release
Protocol: (§1) HWP were obtained in passage two and differentiated in vitro to mature adipocytes. Briefly, cells were initially cultured in preadipocyte growth medium at 37° C. and 5% CO2 to 70-80% confluency. Then, cells were seeded at 40,000 cells/ml into 96-well flat bottom tissue culture plates and incubated overnight to allow attachment. Differentiation was initiated by changing the medium to preadipopcyte differentiation medium for an additional 72 hrs. After differentiation was induced, the medium was replaced by adipocyte nutrition medium that was refreshed every 2-3 days over a period of 14 days until termination of differentiation. Differentiation status was checked via nile red staining of control cells.
(§2) For the cytotoxicity assays in this study pre-adipocytes were seeded at 40,000 cells/ml into a 96-well microtiter flat bottom plate. The test items were prepared in separate plates starting with the double concentrated maximal test concentration followed by a 1:2 serial dilution (Chloroquine and Fluoxetine 1:3) and then added to the cells. The test items were tested at 6 replicates/concentration. Each plate included negative controls (media plus solvent, 6 replicates), a drug interference control (all concentrations, duplicates), a background control (14 replicates), a positive (=cytotoxic) control (6 replicates doxorubicin, 1 μM final) and a positive control for maximal LDH-release (2 replicates, 2% Triton-x 100 final).
(§3) Relative cell viability was determined after 48 hrs exposure based on metabolic activity (i.e. resazurin conversion). Using a Victor^3 1420 Multilabel Counter, the resazurin conversion to the fluorescent resorufin by metabolically active cells was recorded at 560Ex/590Em. Membrane integrity was measured after 6 hrs and 48 hrs and the enzymatic activity of released LDH in the cell supernatant after 30 min of incubation at 492 nmabsorption/690 nmreference by a spectrophotometer. The volume withdrawn from the cultures for the LDH-assay was not replaced to keep cells in a less disturbed environment. The assay was conducted in a multiplexed format.
For the dose-response relationship, absolute absorption (OD treated wells−background) was plotted against the test item concentrations representing LDH leakage from the cells. For a better estimation of the test items' potential influencing the membrane integrity, relative, maximal LDH release in percent (see Table 2) was also calculated according to the following formula: […]
(§4) The effects on cytotoxicity in human adipocyte cells of a further 9 compounds were tested. The experimental set-up was identical to the one in example 1.

[2] = Precipitation of test item in cytotoxicity assay media; format: physicochemical; conditions: above 500 μM
Protocol: (§5) The test items 1 to 8 were prepared according to Table 1 to yield respective stock solutions. Said stock solutions were further diluted in assay media to obtain the double concentrated working solutions, which were subsequently diluted 1:2 in the final assay. […] Deoxycholate Na was selected as “reference compound”.

human adipocyte cells [3] = assay: Cytotoxicity assay: metabolic activity (resazurin conversion) of human adipocytes; format: cell-based; conditions: read-out: IC50 (metabolic activity after 48 hrs), Example 1, 48 hrs exposure, resazurin
Protocol: as §1, §5, §2, §3
In order to derive meaningful IC50 values from the primary data, the entire biological window of activity ranging from 0% to 100% viability should be covered and the resolution has to be sufficient. To improve data quality, the serial dilution factor used in previous experiments was reduced to a 1:2 and 1:3 dilution. […] IC50 (half maximal inhibitory concentration, calculated via Sigma Plot 10) values were determined for each test substance 1 to 8.
as §4

Human white adipocytes = assay: Apoptosis/necrosis detection, Annexin V-FITC/PI flow cytometry; format: cell-based; conditions: for apoptosis/necrosis induction in human adipocytes (in words): 5, 24, 48 hrs, concentrations as in Table 4
Text: The apoptotic program is characterized by certain morphologic features. Loss of plasma membrane asymmetry is a well established indicator for apoptotic cells. In apoptotic cells, the membrane phospholipid phosphatidylserine (PS) is translocated from the inner to the outer leaflet of the plasma membrane, thereby exposing PS to the external environment. In general, this PS translocation is preceded by caspase activation. Annexin V labelled with FITC is a Ca^2+ dependent phospholipid-binding protein with high affinity for PS and binds to cells with externalized PS. Cells stained with Annexin V*FITC are therefore considered in an early apoptotic stage.
Staining with Annexin V-FITC is typically used in conjunction with a vital dye such as propidium iodide (PI) to allow discrimination between early apoptotic and necrotic cells. Necrotic dying cells are PI positive only. Cells that are viable are Annexin V and PI negative; cells that entered apoptosis are Annexin V positive and PI negative and cells that are in post apoptotic and/or necrotic phase are both Annexin V and PI positive.
Human white adipocytes that had been differentiated in vitro from pre-adipocytes as describe above were used. Measurements were performed after 5 hrs to catch early apoptotic/necrotic events and after 24 hrs and 48 hrs for later stages. Naringenin at 500 μM (reported to induce apoptosis in adipocytes) was used as positive control and media plus solvent was used as negative control. Each compound was tested in three different concentrations. […] Two more concentrations, one below and one above the IC50 were added.
Flow cytometry was performed with a dual laser FC500. After completion of the staining procedure, tubes were grouped into a FC500 carousel for semi-automated data acquisition. Cells were first acquired in “Setup” mode to tune the parameters FS, SS, FL1 and FL2. After completion of the setup, baseline compensation was switched on and cells were acquired. Cells were acquired without life-gate but using FS threshold to exclude debris. All cells were acquired using individually corrected settings.
After completion of data acquisition, analysis was done using the CXP software. If necessary, software-based post acquisition compensation was performed to fine-correct for fluorescence overlap not adjusted for during the acquisition phase. Quadrant markers were set based on the negative controls.

subcutaneous fat-tissue = conditions: rats
[4] = 1 mg/mL, 300 μL s.c. Day 1, 7, 28, histology day 29

CC(=O)N1CCN(c2ccc(OCC3COC(Cn4ccnc4)(c4ccc(Cl)cc4Cl)O3)cc2)CC1 (stereo not shown) [Test substance 5, Ketoconazole]
Rel. max. LDH release [%] 48 hrs (human adipocyte cells [1]): 92.2%
precipitation in assay media [2]: generation of insoluble precipitates at higher concentrations
IC50 (human adipocyte cells [3]): 78 µM
primary mode of cell death (Human white adipocytes): Apoptosis can be considered primary mode of cell death at the lower concentration range with necrosis taking place later at higher concentrations
Early Apoptosis [A-V*/PI*] (Human white adipocytes; 60 μM, 5 hrs): 26.5
Necrosis/ Late Apoptosis [A-V*/PI*] (Human white adipocytes; 60 μM, 5 hrs): 1.4
Normal [A-V*/PI] (Human white adipocytes; 60 μM, 5 hrs): 72.1
Early Apoptosis [A-V*/PI*] (Human white adipocytes; 60 μM, 24 hrs): 19.5
Necrosis/ Late Apoptosis [A-V*/PI*] (Human white adipocytes; 60 μM, 24 hrs): 2.6
Normal [A-V*/PI] (Human white adipocytes; 60 μM, 24 hrs): 77.9
Early Apoptosis [A-V*/PI*] (Human white adipocytes; 60 μM, 48 hrs): 9.1
Necrosis/ Late Apoptosis [A-V*/PI*] (Human white adipocytes; 60 μM, 48 hrs): 3.8
Normal [A-V*/PI] (Human white adipocytes; 60 μM, 48 hrs): 87.1
Early Apoptosis [A-V*/PI*] (Human white adipocytes; 80 μM, 5 hrs): 34
Necrosis/ Late Apoptosis [A-V*/PI*] (Human white adipocytes; 80 μM, 5 hrs): 2.2
Normal [A-V*/PI] (Human white adipocytes; 80 μM, 5 hrs): 63.8
Early Apoptosis [A-V*/PI*] (Human white adipocytes; 80 μM, 24 hrs): 22.7
Necrosis/ Late Apoptosis [A-V*/PI*] (Human white adipocytes; 80 μM, 24 hrs): 17.9
Normal [A-V*/PI] (Human white adipocytes; 80 μM, 24 hrs): 59.4
Early Apoptosis [A-V*/PI*] (Human white adipocytes; 80 μM, 48 hrs): 18.5
Necrosis/ Late Apoptosis [A-V*/PI*] (Human white adipocytes; 80 μM, 48 hrs): 44.9
Normal [A-V*/PI] (Human white adipocytes; 80 μM, 48 hrs): 36.6
Early Apoptosis [A-V*/PI*] (Human white adipocytes; 100 μM, 5 hrs): 23.6
Necrosis/ Late Apoptosis [A-V*/PI*] (Human white adipocytes; 100 μM, 5 hrs): 3.1
Normal [A-V*/PI] (Human white adipocytes; 100 μM, 5 hrs): 73.3
Early Apoptosis [A-V*/PI*] (Human white adipocytes; 100 μM, 24 hrs): 16.9
Necrosis/ Late Apoptosis [A-V*/PI*] (Human white adipocytes; 100 μM, 24 hrs): 82.6
Normal [A-V*/PI] (Human white adipocytes; 100 μM, 24 hrs): 0.5
Early Apoptosis [A-V*/PI*] (Human white adipocytes; 100 μM, 48 hrs): 36.9
Necrosis/ Late Apoptosis [A-V*/PI*] (Human white adipocytes; 100 μM, 48 hrs): 52.5
Normal [A-V*/PI] (Human white adipocytes; 100 μM, 48 hrs): 0.5
apoptosis/necrosis induction in human adipocytes (in words) (Human white adipocytes): caused apoptosis after 5 hrs at 60, 80, and 100 μM increasing over time

CNCCC(Oc1ccc(C(F)(F)F)cc1)c1ccccc1 (stereo not shown) [Test substance 4, Fluoxetine HCl]
Rel. max. LDH release [%] 48 hrs (human adipocyte cells [1]): 101.0%
IC50 (human adipocyte cells [3]; Homo sapiens, Adipocyte): 52 µM
degree of histological changes at administration sites (subcutaneous connective and/or adipose tissue) (subcutaneous fat-tissue; [4]): minimal or mild in degree
edema at administration sites (subcutaneous fat-tissue; [4]): minimal or mild
fibrosis at administration sites (subcutaneous fat-tissue; [4]): minimal or mild
haemorrhage at administration sites (subcutaneous fat-tissue; [4]): minimal or mild
infiltrates of granulocytes at administration sites (subcutaneous fat-tissue; [4]): minimal
infiltrates of mononuclear cells at administration sites (subcutaneous fat-tissue; [4]): minimal to moderate
single cell death of inflammatory cells and/or connective tissue at administration sites (subcutaneous fat-tissue; [4]): minimal
adipocytolysis (concluded from inflammatory reaction) (subcutaneous fat-tissue; repetitive s.c. injection): causes adipocytolysis
primary mode of cell death (Human white adipocytes): fast and strong apoptosis induction
Early Apoptosis [A-V*/PI*] (Human white adipocytes; 40 μM, 5 hrs): 26.9
Necrosis/ Late Apoptosis [A-V*/PI*] (Human white adipocytes; 40 μM, 5 hrs): 0
Necrosis/ Late Apoptosis [A-V*/PI*] (Human white adipocytes; 40 μM, 24 hrs): 2.6
Normal [A-V*/PI] (Human white adipocytes; 40 μM, 24 hrs): 49.9
Early Apoptosis [A-V*/PI*] (Human white adipocytes; 40 μM, 48 hrs): 22.7
Necrosis/ Late Apoptosis [A-V*/PI*] (Human white adipocytes; 40 μM, 48 hrs): 7.7
Early Apoptosis [A-V*/PI*] (Human white adipocytes; 60 μM, 5 hrs): 58.5
Necrosis/ Late Apoptosis [A-V*/PI*] (Human white adipocytes; 60 μM, 5 hrs): 1.3
Normal [A-V*/PI] (Human white adipocytes; 60 μM, 5 hrs): 45.2
Early Apoptosis [A-V*/PI*] (Human white adipocytes; 60 μM, 24 hrs): 78.7
Necrosis/ Late Apoptosis [A-V*/PI*] (Human white adipocytes; 60 μM, 24 hrs): 5.5
Normal [A-V*/PI] (Human white adipocytes; 60 μM, 24 hrs): 14.7
Early Apoptosis [A-V*/PI*] (Human white adipocytes; 60 μM, 48 hrs): 37.9
Necrosis/ Late Apoptosis [A-V*/PI*] (Human white adipocytes; 60 μM, 48 hrs): 19.8
Normal [A-V*/PI] (Human white adipocytes; 60 μM, 48 hrs): 42.3
cells apoptotic (Human white adipocytes; 80 μM, 5 h): more than 50%
Necrosis/ Late Apoptosis [A-V*/PI*] (Human white adipocytes; 80 μM, 5 hrs): 1.6
Normal [A-V*/PI] (Human white adipocytes; 80 μM, 5 hrs): 47
Early Apoptosis [A-V*/PI*] (Human white adipocytes; 80 μM, 24 hrs): 41.9
Necrosis/ Late Apoptosis [A-V*/PI*] (Human white adipocytes; 80 μM, 24 hrs): 44.1
Normal [A-V*/PI] (Human white adipocytes; 80 μM, 24 hrs): 14
Necrosis/ Late Apoptosis [A-V*/PI*] (Human white adipocytes; 80 μM, 48 hrs): 42.2
Normal [A-V*/PI] (Human white adipocytes; 80 μM, 48 hrs): 2.7
apoptosis/necrosis induction in human adipocytes (in words) (Human white adipocytes): rapidly induced strong apoptosis
